Test in all cases: NCI-60 cell line screen, 48 h
The test system of assay [1] is M14 melanoma.
The test system of assay [2] is SK-MEL-5 melanoma.
Assay [3] deals with OVCAR-3 ovarian.
For assay [4], the system named is SK-MEL-2 melanoma.
Assay [5] concerns HL-60(TB) leukemia.
The test system of assay [6] is TK-10 renal.
Assay [7] deals with RXF 393 renal.
Assay [8] has as its system SW-620 colon.
Assay [9] has as its system BT-549 breast.
Assay [10] concerns COLO 205 colon.

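Values below derive from 48-hour exposures of cells grown in 96-well plates, with endpoints linearly interpolated between the two concentrations bracketing the appropriate inhibition level. At the GI50, growth is halved. TGI: concentration producing complete growth inhibition.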

For the molecule `Cc1cc(=O)[nH]c(NN2C(Cl)C(=O)C2c2cccc(Cl)c2)n1` (stereo not drawn), the TGI in [1] was 35.4 µM; in assay [2], 34.2 µM; in assay [3], 51.1 µM; in [4], 35.8 µM; in assay [5] it was 40.4 µM; in assay [6], greater than 100 µM. For the same molecule, the TGI in [7] is 23.2 µM; in assay [8] it was greater than 100 µM.
For the molecule `C[C@H](C/C=C/C(C)(C)O)[C@H]1CC[C@@]2(C)[C@@H]3CC[C@H]4C(C)(C)[C@@H](O)CC[C@@]45C[C@@]35CC[C@]12C`, the TGI is 44.5 µM in assay [1]; greater than 100 µM in [3]; 37.7 µM in [4]; 27.1 µM in assay [6]; 56 µM in assay [9]; 65.4 µM in assay [8].
For the molecule `COc1ccc2c(OCc3nnc4ccc(-c5ccccc5)nn34)ccnc2c1`, the GI50 in assay [1] is greater than 100 µM; in [2], greater than 100 µM; in assay [3] it was greater than 100 µM; in assay [4], greater than 91.1 µM; in assay [5] it was greater than 100 µM; in assay [6], greater than 100 µM. In addition, the GI50 in assay [9] and in [8] was greater than 100 µM throughout. Further, the TGI in [1], in assay [2], in assay [3], in [4], in [5] and in assay [6] was greater than 100 µM throughout. The TGI in [9] and in assay [8] was greater than 100 µM each time.
Regarding `CC1=NC(=Cc2ccc([N+](=O)[O-])cc2)C(=O)N1n1c(-c2ccccc2)nc2ccccc2c1=O`, the TGI in assay [1] was greater than 100 µM; in assay [2], greater than 100 µM; in assay [5], 88.4 µM; in assay [6], greater than 100 µM; in assay [9] it was greater than 100 µM; in assay [8], greater than 100 µM. The molecule also showed a TGI in assay [10] greater than 100 µM.
`COC(=O)c1ccc(Nc2nc3nc[nH]c3c(=O)[nH]2)cc1`: the TGI in assay [1], in assay [2], in [3], in assay [4], in [5] and in assay [6] was greater than 100 µM each time. For the same molecule, the TGI in assay [9], in assay [8] and in [10] was greater than 100 µM throughout.
As for `Cc1nc2c(=S)n(C)ncc2[nH]1`, the TGI in assay [1], in assay [2], in assay [3], in assay [4], in assay [5] and in assay [6] was greater than 100 µM throughout. The TGI in [9], in assay [8] and in assay [10] was greater than 100 µM in each case.
As to `Cc1nc2ccccc2c(/C=C/c2ccc(Cl)cc2)c1C(=O)/C=C/c1ccc(Cl)cc1`, the values for the GI50 in assay [2], in [5] and in assay [7] were 1.62 µM, 1.46 µM and 1.52 µM, respectively. Moreover, the values for the TGI in [2], in assay [5] and in assay [7] were 3 µM, 4.37 µM and 3 µM, respectively.
For the molecule `O=C1Nc2ccccc2Nc2ccncc21`, the TGI in [2], in [3], in assay [4], in assay [5], in assay [7] and in assay [8] was greater than 100 µM in each case. Also, the TGI in [10] is greater than 100 µM.
`CN(C)c1cccc(NC2=NCCO2)c1`: the TGI in assay [1] is greater than 100 µM; in [2], greater than 100 µM; in [3], greater than 100 µM; in assay [4], 48.7 µM; in assay [5], 50.5 µM; in [6], greater than 100 µM. In addition, the values for the TGI in [7], in assay [8] and in assay [10] were greater than 100 µM, greater than 100 µM and 41.3 µM, respectively.
As to `C=CCOCn1cc(C)c(=O)[nH]c1=O`, the TGI in [1], in assay [2], in assay [5], in [6], in assay [9] and in [8] was greater than 100 µM throughout. The same molecule had a TGI in assay [10] greater than 100 µM.
Regarding `CC(=O)[CH-]C(=O)c1ccccc1.CC(=O)[CH-]C(=O)c1ccccc1.C[C@]12CCC(=O)C=C1CC[C@@H]1C2CC[C@@]2(C)C1CC[C@]2(C)[O-].C[C@]12CCC(=O)C=C1CC[C@@H]1C2CC[C@@]2(C)C1CC[C@]2(C)[O-].Cl.[Ti+4]` (stereo partly drawn), the GI50 was 24.2 µM in assay [1]; 27.9 µM in assay [3]; 13.9 µM in [4]; 2.87 µM in [5]; 34.2 µM in [6]; 3.91 µM in assay [8]. The GI50 in assay [10] is 37.6 µM. For the same molecule, the TGI in assay [1] was 83.6 µM; in [3], greater than 100 µM; in assay [4] it was 33.2 µM; in [5], 13.1 µM; in assay [6] it was greater than 100 µM; in [8], 30 µM. In assay [10], this molecule gave a TGI greater than 100 µM.
As for `O=C(NC(=S)NC(=O)c1cc(O)c(O)c(O)c1)c1cc(O)c(O)c(O)c1`, the TGI in [1] is 98.6 µM; in [2] it was 57.7 µM; in assay [4] it was 40.4 µM; in [6], 61.3 µM; in [7], 41.5 µM; in assay [8], greater than 100 µM. Besides, in assay [10], the TGI is 46.7 µM.
Regarding `Cn1c(N/N=C/c2ccccc2)nc(-c2ccc([N+](=O)[O-])cc2)c(C#N)c1=O`, the TGI is greater than 100 µM in assay [1]; greater than 100 µM in [2]; 44.9 µM in [3]; greater than 100 µM in assay [4]; 48.3 µM in [5]; greater than 100 µM in assay [6]. Moreover, the TGI in [7], in assay [8] and in assay [10] was greater than 100 µM throughout.
For `Cc1ccccc1NC(=O)Cc1csc2[n+]1C(=O)/C(=C/c1ccc([N+](=O)[O-])cc1)S2`, the TGI is greater than 100 µM in assay [1]; greater than 100 µM in assay [2]; greater than 100 µM in assay [3]; greater than 100 µM in assay [4]; greater than 100 µM in assay [5]; 56.3 µM in assay [6]. Also, the TGI is 38.6 µM in [9], greater than 100 µM in assay [8] and greater than 100 µM in assay [10].

(Values after PubChem BioAssay (NCI).)
